Results taken from the NIST ThermoML archive (doi:10.1016/j.fluid.2016.02.031).

Assay: xn = mol fraction of the nth substance listed
Details: 100 kPa, Liquid; for mass density: Vibrating tube method; for viscosity: Concentric cylinders viscometry

OCCCO [propan-1,3-diol] + CCC(C)=O
Details | mass density, 298.15 K [kg/m3] | mass density, 303.15 K [kg/m3] | mass density, 308.15 K [kg/m3] | viscosity, 303.15 K [mPa·s] | viscosity, 308.15 K [mPa·s]
x1 = 0.1052 | 824.172 | 819.09 | 813.976 | 0.4891 | 0.4633
x1 = 0.2004 | 846.22 | 841.328 | 836.391 | 0.6674 | 0.6247
x1 = 0.3002 | 870.166 | 865.461 | 860.732 | 0.9604 | 0.8841
x1 = 0.4003 | 895.391 | 890.9 | 886.382 | 1.517 | 1.379
x1 = 0.4999 | 920.936 | 916.653 | 912.346 | 2.414 | 2.141
x1 = 0.5992 | 946.376 | 942.296 | 938.196 | 3.957 | 3.447
x1 = 0.6992 | 972.256 | 968.392 | 964.512 | 6.624 | 5.663
x1 = 0.7989 | 996.448 | 992.685 | 989.056 | 11.3 | 9.517
x1 = 0.8998 | 1021.51 | 1018 | 1014.59 | 19.67 | 16.21
x1 = 1 | 1049.76 | 1046.64 | 1043.5 | 33.56 | 27.15
